# Source: patent US20260001928A1 (CORTERIA PHARMACEUTICALS, priority 2022, published 2026)
# *1 amine or outer side, *2 acyl side, *3 side chain or, on linkers, in order; H or OH if unused. Where a SMILES comes first, the peptide text is derived from it. Side-chain parts run from the residue outwards. [ ]: non-standard residue; d: D form. The star is where a group is joined. C18 diacid = O=C(O)CCCCCCCCCCCCCCCCC(=O)*; C16 diacid = O=C(O)CCCCCCCCCCCCCCC(=O)*; γGlu = O=C(O)[C@H](CCC(=O)[*:2])N[*:1]; NMeI = CC[C@H](C)[C@H](NC)C(=O)O; AEEA = NCCOCCOCC(=O)O; Aib = CC(C)(N)C(=O)O
# Target: T1, CFR1R receptor (Homo sapiens, UniProt P34998)
# T1 construct: host or cells: CHO-K1 (clone 2)
# T1 sequence (P34998 24-415): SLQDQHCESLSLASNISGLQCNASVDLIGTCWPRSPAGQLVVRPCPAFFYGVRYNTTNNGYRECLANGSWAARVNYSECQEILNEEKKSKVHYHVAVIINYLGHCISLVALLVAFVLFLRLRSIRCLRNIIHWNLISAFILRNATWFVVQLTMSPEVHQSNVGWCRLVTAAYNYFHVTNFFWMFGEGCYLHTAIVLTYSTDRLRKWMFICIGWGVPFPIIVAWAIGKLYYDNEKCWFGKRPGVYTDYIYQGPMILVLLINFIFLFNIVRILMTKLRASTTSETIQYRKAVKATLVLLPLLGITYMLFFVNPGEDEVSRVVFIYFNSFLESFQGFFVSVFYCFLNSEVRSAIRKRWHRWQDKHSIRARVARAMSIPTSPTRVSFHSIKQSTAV
# Assay: Activity at anti-target CFR1R receptor, cAMP assay in CRF1R-overexpression CHO-K1 cells
# Format: cell-based
# Conditions: 100% = Sauvagine at 100 nM
# Procedure: Assessment of activity at anti-target CFR1R receptor is done using the same procedure as the one described for the TeloHEAC cell line. The CRF1R-overexpression CHO-K1 cell line clone 2 was purchased from PerkinElmer. Cells were grown in a 10 cm dish at 37° C./5% CO2 in medium (F12 (Hams)/10% FBS/400 μg/ml G418) to near confluence. At that stage, cells were harvested, resuspended to 10 million/mL in culture medium without G418 and with 10% DMSO. 1 mL vial aliquots were slowly frozen to −80° C. in isopropanol and then transferred in liquid nitrogen for storage. These vials were used to run the experiment following the procedure reported in the previous paragraph, except for the compound used in the control well to define the 100% activation (Sauvagine at 100 nM) and the cell density (final cell density: 4000 cells/well)
Compound,Emax (% I),other results
"CC[C@H](C)[C@H](NC(C)=O)C(=O)N[C@H](C(=O)N[C@@H](CC(C)C)C(=O)N[C@@H](CO)C(=O)N[C@@H](CC(C)C)C(=O)N[C@@H](CC(=O)O)C(=O)N[C@@H](C(=O)N1CCC[C@H]1C(=O)N[C@H](C(=O)N[C@@H](CCCCN)C(=O)N[C@@H](CC(C)C)C(=O)N[C@@H](CCCCNC(=O)CC[C@H](NC(=O)CCCCCCCCCCCCCCC(=O)O)C(=O)O)C(=O)N[C@@H](CCC(N)=O)C(=O)N[C@H](C(=O)N[C@@H](CC(C)C)C(=O)N[C@@H](CC(C)C)C(=O)N[C@@H](CCCCN)C(=O)N[C@@H](CCC(N)=O)C(=O)N[C@@H](CCC(=O)O)C(=O)N[C@@H](CCCNC(=N)N)C(=O)N[C@@H](CCC(N)=O)C(=O)N[C@@H](CCCCN)C(=O)N[C@@H](CCCCN)C(=O)N[C@@H](CCC(N)=O)C(=O)N[C@@H](CCCNC(=N)N)C(=O)N[C@@H](CCC(=O)O)C(=O)N[C@@H](CCC(N)=O)C(=O)N[C@@H](C)C(=O)N[C@@H](CCC(=O)O)C(=O)N[C@@H](CCCCN)C(=O)N[C@@H](CC(N)=O)C(=O)N[C@@H](CCCCN)C(=O)N[C@@H](CCC(N)=O)C(=O)N[C@H](C(=O)N[C@@H](CC(C)C)C(=O)N[C@@H](CCC(=O)O)C(=O)N[C@@H](CCC(N)=O)C(=O)N[C@H](C(N)=O)C(C)C)[C@@H](C)CC)[C@@H](C)CC)[C@@H](C)CC)C(C)C)C(C)C [SEQ ID No. 2, reference compound] (Ac-IVLSLD[dV]PIKLK([γGlu-C16 diacid])QILLKQERQKKQREQAEKNKQILEQV-NH2)",4,–
"CC[C@H](C)[C@H](NC(C)=O)C(=O)N[C@H](C(=O)N[C@@H](CC(C)C)C(=O)N[C@@H](CO)C(=O)N[C@@H](CC(C)C)C(=O)N[C@@H](CC(=O)O)C(=O)N[C@@H](C(=O)N1CCC[C@H]1C(=O)N[C@H](C(=O)N[C@@H](CCCCN)C(=O)N[C@@H](CC(C)C)C(=O)N[C@@H](CCCCNC(=O)CC[C@H](NC(=O)CCCCCCCCCCCCCCCCC(=O)O)C(=O)O)C(=O)N[C@@H](CCCCN)C(=O)N[C@H](C(=O)N[C@@H](CC(C)C)C(=O)N[C@@H](CC(C)C)C(=O)N[C@@H](CCC(=O)O)C(=O)N[C@@H](CCC(N)=O)C(=O)N[C@@H](CCC(=O)O)C(=O)N[C@@H](CCCCN)C(=O)N[C@@H](CCC(N)=O)C(=O)N[C@@H](CCCCN)C(=O)N[C@@H](CCCCN)C(=O)N[C@@H](CCC(N)=O)C(=O)N[C@@H](CCCNC(=N)N)C(=O)N[C@@H](CCC(=O)O)C(=O)N[C@@H](CCC(N)=O)C(=O)N[C@@H](C)C(=O)N[C@@H](CCC(=O)O)C(=O)N[C@H](C(=O)N[C@@H](CC(N)=O)C(=O)N[C@@H](CCC(=O)O)C(=O)N[C@@H](CCC(N)=O)C(=O)N[C@H](C(=O)N[C@@H](CC(C)C)C(=O)N[C@@H](C)C(=O)N[C@@H](CCC(N)=O)C(=O)N[C@H](C(N)=O)C(C)C)[C@@H](C)CC)[C@@H](C)O)[C@@H](C)CC)[C@@H](C)CC)C(C)C)C(C)C [SEQ ID No. 130, reference compound] (Ac-IVLSLD[dV]PIKLK([γGlu-C18 diacid])KILLEQEKQKKQREQAETNEQILAQV-NH2)",–,Emax (% I) (listed as 13): 24 % I
"CC[C@H](C)[C@H](NC)C(=O)N[C@H](C(=O)N[C@@H](CC(C)C)C(=O)N[C@@H](CO)C(=O)N[C@@H](CC(C)C)C(=O)N[C@@H](CC(=O)O)C(=O)N[C@@H](C(=O)N1CCC[C@H]1C(=O)N[C@H](C(=O)N[C@@H](CCCCN)C(=O)N[C@@H](CC(C)C)C(=O)N[C@@H](CCCCNC(=O)CC[C@H](NC(=O)CCCCCCCCCCCCCCCCC(=O)O)C(=O)O)C(=O)N[C@@H](CCCCN)C(=O)N[C@H](C(=O)N[C@@H](CC(C)C)C(=O)N[C@@H](CC(C)C)C(=O)N[C@@H](CCC(=O)O)C(=O)N[C@@H](CCC(N)=O)C(=O)N[C@@H](CCC(=O)O)C(=O)N[C@@H](CCCCN)C(=O)N[C@@H](CCC(N)=O)C(=O)N[C@@H](CCCCN)C(=O)N[C@@H](CCCCN)C(=O)N[C@@H](CCC(N)=O)C(=O)N[C@@H](CCCNC(=N)N)C(=O)N[C@@H](CCC(=O)O)C(=O)N[C@@H](CCC(N)=O)C(=O)N[C@@H](C)C(=O)N[C@@H](CCC(=O)O)C(=O)N[C@H](C(=O)N[C@@H](CC(N)=O)C(=O)N[C@@H](CCC(=O)O)C(=O)N[C@@H](CCC(N)=O)C(=O)N[C@H](C(=O)N[C@@H](CC(C)C)C(=O)N[C@@H](C)C(=O)N[C@@H](CCC(N)=O)C(=O)N[C@H](C(N)=O)C(C)C)[C@@H](C)CC)[C@@H](C)O)[C@@H](C)CC)[C@@H](C)CC)C(C)C)C(C)C [SEQ ID No. 142, reference compound] (H-[NMeI]VLSLD[dV]PIKLK([γGlu-C18 diacid])KILLEQEKQKKQREQAETNEQILAQV-NH2)",–,Emax (% I) (listed as 14): 24 % I
"CC[C@H](C)[C@H](N)C(=O)N[C@H](C(=O)N[C@@H](CC(C)C)C(=O)N[C@@H](CO)C(=O)N[C@@H](CC(C)C)C(=O)N[C@@H](CC(=O)O)C(=O)N[C@@H](C(=O)N1CCC[C@H]1C(=O)N[C@H](C(=O)N[C@@H](CCCCN)C(=O)N[C@@H](CC(C)C)C(=O)N[C@@H](CCCCNC(=O)COCCOCCNC(=O)COCCOCCNC(=O)CC[C@H](NC(=O)CCCCCCCCCCCCCCC(=O)O)C(=O)O)C(=O)N[C@@H](CCC(N)=O)C(=O)N[C@H](C(=O)N[C@@H](CC(C)C)C(=O)N[C@@H](CC(C)C)C(=O)N[C@@H](CCCCN)C(=O)N[C@@H](CCC(N)=O)C(=O)N[C@@H](CCC(=O)O)C(=O)N[C@@H](CCCNC(=N)N)C(=O)N[C@@H](CCC(N)=O)C(=O)N[C@@H](CCCCN)C(=O)N[C@@H](CCCCN)C(=O)N[C@@H](CCC(N)=O)C(=O)N[C@@H](CCCNC(=N)N)C(=O)N[C@@H](CCC(=O)O)C(=O)N[C@@H](CCC(N)=O)C(=O)N[C@@H](C)C(=O)N[C@@H](CCC(=O)O)C(=O)N[C@@H](CCCCN)C(=O)N[C@@H](CC(N)=O)C(=O)N[C@@H](CCCCN)C(=O)N[C@@H](CCC(N)=O)C(=O)N[C@H](C(=O)N[C@@H](CC(C)C)C(=O)N[C@@H](CCC(=O)O)C(=O)N[C@@H](CCC(N)=O)C(=O)N[C@H](C(N)=O)C(C)C)[C@@H](C)CC)[C@@H](C)CC)[C@@H](C)CC)C(C)C)C(C)C [SEQ ID No. 148, reference compound] (H-IVLSLD[dV]PIKLK([AEEA-AEEA-γGlu-C16 diacid])QILLKQERQKKQREQAEKNKQILEQV-NH2)",–,Emax (% I) (listed as 2): 63 % I
CC[C@H](C)[C@H](N)C(=O)N[C@H](C(=O)N[C@@H](CC(C)C)C(=O)N[C@@H](CO)C(=O)N[C@@H](CC(C)C)C(=O)N[C@@H](CC(=O)O)C(=O)N[C@H](C(=O)N1CCC[C@H]1C(=O)N[C@H](C(=O)N[C@@H](CCCCN)C(=O)N[C@@H](CC(C)C)C(=O)N[C@@H](CCCCNC(=O)COCCOCCNC(=O)COCCOCCNC(=O)CC[C@H](NC(=O)CC[C@H](NC(=O)CCCCCCCCCCCCCCCCC(=O)O)C(=O)O)C(=O)O)C(=O)N[C@@H](CCC(N)=O)C(=O)NC(C)(C)C(=O)N[C@@H](CC(C)C)C(=O)N[C@@H](CC(C)C)C(=O)N[C@@H](CCCCN)C(=O)N[C@@H](CCC(N)=O)C(=O)N[C@@H](CCC(=O)O)C(=O)N[C@@H](CCCNC(=N)N)C(=O)N[C@@H](CCC(N)=O)C(=O)N[C@@H](CCCCN)C(=O)N[C@@H](CCCCN)C(=O)N[C@@H](CCC(N)=O)C(=O)N[C@@H](CCCNC(=N)N)C(=O)N[C@@H](CCC(=O)O)C(=O)N[C@@H](CCC(N)=O)C(=O)N[C@@H](C)C(=O)N[C@@H](CCC(=O)O)C(=O)N[C@@H](CCCCN)C(=O)N[C@@H](CC(N)=O)C(=O)NC(C)(C)C(=O)N[C@@H](CCC(N)=O)C(=O)N[C@H](C(=O)N[C@@H](CC(C)C)C(=O)N[C@@H](CCC(=O)O)C(=O)N[C@@H](CCC(N)=O)C(=O)N[C@H](C(N)=O)C(C)C)[C@@H](C)CC)[C@@H](C)CC)C(C)C)C(C)C [compound 25] (H-IVLSLDVPIKLK([AEEA-AEEA-γGlu-γGlu-C18 diacid])Q[Aib]LLKQERQKKQREQAEKN[Aib]QILEQV-NH2),6,–
CC[C@H](C)[C@H](NC(C)=O)C(=O)N[C@H](C(=O)N[C@@H](CC(C)C)C(=O)N[C@@H](CO)C(=O)N[C@@H](CC(C)C)C(=O)N[C@@H](CC(=O)O)C(=O)N[C@H](C(=O)N1CCC[C@H]1C(=O)N[C@H](C(=O)N[C@@H](CCCCN)C(=O)N[C@@H](CC(C)C)C(=O)N[C@@H](CCCCNC(=O)COCCOCCNC(=O)COCCOCCNC(=O)CC[C@H](NC(=O)CC[C@H](NC(=O)CCCCCCCCCCCCCCCCC(=O)O)C(=O)O)C(=O)O)C(=O)N[C@@H](CCC(N)=O)C(=O)NC(C)(C)C(=O)N[C@@H](CC(C)C)C(=O)N[C@@H](CC(C)C)C(=O)N[C@@H](CCCCN)C(=O)N[C@@H](CCC(N)=O)C(=O)N[C@@H](CCC(=O)O)C(=O)N[C@@H](CCCNC(=N)N)C(=O)N[C@@H](CCC(N)=O)C(=O)N[C@@H](CCCCN)C(=O)N[C@@H](CCCCN)C(=O)N[C@@H](CCC(N)=O)C(=O)N[C@@H](CCCNC(=N)N)C(=O)N[C@@H](CCC(=O)O)C(=O)N[C@@H](CCC(N)=O)C(=O)N[C@@H](C)C(=O)N[C@@H](CCC(=O)O)C(=O)N[C@@H](CCCCN)C(=O)N[C@@H](CC(N)=O)C(=O)NC(C)(C)C(=O)N[C@@H](CCC(N)=O)C(=O)N[C@H](C(=O)N[C@@H](CC(C)C)C(=O)N[C@@H](CCC(=O)O)C(=O)N[C@@H](CCC(N)=O)C(=O)N[C@H](C(N)=O)C(C)C)[C@@H](C)CC)[C@@H](C)CC)C(C)C)C(C)C [compound 26] (Ac-IVLSLDVPIKLK([AEEA-AEEA-γGlu-γGlu-C18 diacid])Q[Aib]LLKQERQKKQREQAEKN[Aib]QILEQV-NH2),1,–
